Experimental data as given in ChEMBL document CHEMBL4507319 (2021).

How the values were obtained:
[1] = biological target: T1, Serine/threonine-protein kinase D2 (Homo sapiens) (UniProt Q9BZL6); test: PKD2(h) Eurofins kinase panel; conditions: Compound concentration 1.0 uM
T1 sequence (whole entry): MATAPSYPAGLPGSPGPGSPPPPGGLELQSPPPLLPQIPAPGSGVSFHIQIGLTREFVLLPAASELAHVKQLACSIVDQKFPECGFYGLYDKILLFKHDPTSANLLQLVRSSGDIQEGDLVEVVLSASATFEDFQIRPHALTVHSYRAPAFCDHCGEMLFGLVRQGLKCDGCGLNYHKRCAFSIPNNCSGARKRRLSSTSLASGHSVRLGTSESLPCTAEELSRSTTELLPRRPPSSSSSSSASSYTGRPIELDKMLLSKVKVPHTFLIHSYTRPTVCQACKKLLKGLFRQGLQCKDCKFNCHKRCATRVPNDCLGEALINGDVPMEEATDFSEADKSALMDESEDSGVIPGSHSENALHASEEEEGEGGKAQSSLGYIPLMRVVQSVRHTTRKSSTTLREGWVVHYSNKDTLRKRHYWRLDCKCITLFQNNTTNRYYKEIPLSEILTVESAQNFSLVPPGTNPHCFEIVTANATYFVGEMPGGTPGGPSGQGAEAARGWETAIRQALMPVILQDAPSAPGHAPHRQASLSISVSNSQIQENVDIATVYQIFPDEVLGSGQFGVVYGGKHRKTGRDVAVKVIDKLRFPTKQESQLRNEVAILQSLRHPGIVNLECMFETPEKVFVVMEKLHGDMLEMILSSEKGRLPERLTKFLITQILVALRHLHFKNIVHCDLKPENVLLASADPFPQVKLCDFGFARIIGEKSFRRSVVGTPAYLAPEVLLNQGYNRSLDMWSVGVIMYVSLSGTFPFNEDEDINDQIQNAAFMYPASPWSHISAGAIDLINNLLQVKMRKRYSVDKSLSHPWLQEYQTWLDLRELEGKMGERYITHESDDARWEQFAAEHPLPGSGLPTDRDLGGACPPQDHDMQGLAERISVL

[2] = biological target: Protein kinase C zeta type (Homo sapiens) (UniProt Q05513); test: PKCzeta(h) Eurofins kinase panel; conditions: Compound concentration 1.0 uM
[3] = biological target: Serine/threonine-protein kinase 26 (Homo sapiens) (UniProt Q9P289); test: MST4(h) Eurofins kinase panel; conditions: Compound concentration 1.0 uM
LNCaP = test: LNCaP cell line Proliferation assay; type: functional, Homo sapiens; conditions: time 6 day
[4] = biological target: Phosphatidylinositol 5-phosphate 4-kinase type-2 alpha (Homo sapiens) (UniProt P48426); test: PIP4K2a(h) Eurofins kinase panel; conditions: Compound concentration 1.0 uM
[5] = biological target: T2, Serine/threonine-protein kinase TAO3 (Homo sapiens) (UniProt Q9H2K8); test: TAO3(h) Eurofins kinase panel; conditions: Compound concentration 1.0 uM
T2 sequence (whole entry): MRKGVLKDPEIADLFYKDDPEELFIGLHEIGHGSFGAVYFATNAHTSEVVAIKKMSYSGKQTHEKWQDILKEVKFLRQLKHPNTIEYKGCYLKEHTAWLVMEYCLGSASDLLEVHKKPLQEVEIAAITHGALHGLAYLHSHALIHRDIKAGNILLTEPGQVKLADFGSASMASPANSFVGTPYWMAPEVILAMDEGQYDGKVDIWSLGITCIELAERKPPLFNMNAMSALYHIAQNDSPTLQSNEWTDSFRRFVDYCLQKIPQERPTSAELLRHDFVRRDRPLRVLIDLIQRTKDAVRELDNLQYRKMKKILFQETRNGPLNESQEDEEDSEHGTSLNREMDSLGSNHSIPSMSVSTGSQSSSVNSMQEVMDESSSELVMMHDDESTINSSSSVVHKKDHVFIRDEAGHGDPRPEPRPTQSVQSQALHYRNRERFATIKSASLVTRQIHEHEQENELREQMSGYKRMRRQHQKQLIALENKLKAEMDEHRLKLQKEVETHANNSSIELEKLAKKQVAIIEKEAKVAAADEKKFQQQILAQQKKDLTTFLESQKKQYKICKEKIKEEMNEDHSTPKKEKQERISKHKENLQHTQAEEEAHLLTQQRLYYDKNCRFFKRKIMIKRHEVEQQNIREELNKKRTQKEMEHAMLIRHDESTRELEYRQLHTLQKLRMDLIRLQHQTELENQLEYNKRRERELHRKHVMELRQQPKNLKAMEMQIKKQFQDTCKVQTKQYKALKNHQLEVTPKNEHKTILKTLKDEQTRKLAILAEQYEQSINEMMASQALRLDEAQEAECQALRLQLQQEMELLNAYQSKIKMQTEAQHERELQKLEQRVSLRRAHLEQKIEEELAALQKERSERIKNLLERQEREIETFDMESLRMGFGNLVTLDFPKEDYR

DU-145 = test: DU-145 cell line Proliferation assay; type: functional, Homo sapiens; conditions: time 6 day
[6] = biological target: Activin receptor type-1-like (Homo sapiens) (UniProt P37023); test: ALK1(h) Eurofins kinase panel; conditions: Compound concentration 1.0 uM
[7] = biological target: DNA-dependent protein kinase catalytic subunit (Homo sapiens) (UniProt P78527); test: DNA-PK(h) Eurofins kinase panel; conditions: Compound concentration 1.0 uM
[8] = biological target: Glycogen synthase kinase-3 beta (Homo sapiens) (UniProt P49841); test: GSK3β(h) Eurofins kinase panel; conditions: Compound concentration 1.0 uM
[9] = biological target: T3, Serine/threonine-protein kinase TBK1 (Homo sapiens) (UniProt Q9UHD2); test: TBK1(h) Eurofins kinase panel; conditions: Compound concentration 1.0 uM
T3 sequence (whole entry): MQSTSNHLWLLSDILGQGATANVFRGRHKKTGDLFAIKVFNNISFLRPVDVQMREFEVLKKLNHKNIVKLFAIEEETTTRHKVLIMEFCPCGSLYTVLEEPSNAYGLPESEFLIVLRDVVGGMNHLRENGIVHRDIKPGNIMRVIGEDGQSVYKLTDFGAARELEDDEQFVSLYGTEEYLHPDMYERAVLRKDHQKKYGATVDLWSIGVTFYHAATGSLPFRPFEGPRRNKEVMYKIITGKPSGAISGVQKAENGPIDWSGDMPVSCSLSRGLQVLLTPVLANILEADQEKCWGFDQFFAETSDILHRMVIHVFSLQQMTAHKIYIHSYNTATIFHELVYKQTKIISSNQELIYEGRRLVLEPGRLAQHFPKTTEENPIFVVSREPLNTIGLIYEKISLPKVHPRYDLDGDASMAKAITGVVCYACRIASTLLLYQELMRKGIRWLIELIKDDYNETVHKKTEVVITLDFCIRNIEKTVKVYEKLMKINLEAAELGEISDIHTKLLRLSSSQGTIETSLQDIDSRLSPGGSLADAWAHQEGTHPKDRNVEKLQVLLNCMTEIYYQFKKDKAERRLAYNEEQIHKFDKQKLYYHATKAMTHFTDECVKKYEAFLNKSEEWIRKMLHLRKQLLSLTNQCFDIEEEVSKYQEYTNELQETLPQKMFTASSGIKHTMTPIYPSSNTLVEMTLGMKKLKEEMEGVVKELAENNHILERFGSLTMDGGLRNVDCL

PANC-1 = test: PANC-1 cell line Proliferation assay; type: functional, Homo sapiens; conditions: time 3 day
ATR/ATRIP (Homo sapiens) = ATR/ATRIP (Homo sapiens) (UniProt Q13535+Q8WXE1); test: ATR/ATRIP(h) Eurofins kinase panel; type: protein-complex assay; conditions: Compound concentration 1.0 uM
ATR/ATRIP (Homo sapiens), sequence (Q13535 whole entry, looked up): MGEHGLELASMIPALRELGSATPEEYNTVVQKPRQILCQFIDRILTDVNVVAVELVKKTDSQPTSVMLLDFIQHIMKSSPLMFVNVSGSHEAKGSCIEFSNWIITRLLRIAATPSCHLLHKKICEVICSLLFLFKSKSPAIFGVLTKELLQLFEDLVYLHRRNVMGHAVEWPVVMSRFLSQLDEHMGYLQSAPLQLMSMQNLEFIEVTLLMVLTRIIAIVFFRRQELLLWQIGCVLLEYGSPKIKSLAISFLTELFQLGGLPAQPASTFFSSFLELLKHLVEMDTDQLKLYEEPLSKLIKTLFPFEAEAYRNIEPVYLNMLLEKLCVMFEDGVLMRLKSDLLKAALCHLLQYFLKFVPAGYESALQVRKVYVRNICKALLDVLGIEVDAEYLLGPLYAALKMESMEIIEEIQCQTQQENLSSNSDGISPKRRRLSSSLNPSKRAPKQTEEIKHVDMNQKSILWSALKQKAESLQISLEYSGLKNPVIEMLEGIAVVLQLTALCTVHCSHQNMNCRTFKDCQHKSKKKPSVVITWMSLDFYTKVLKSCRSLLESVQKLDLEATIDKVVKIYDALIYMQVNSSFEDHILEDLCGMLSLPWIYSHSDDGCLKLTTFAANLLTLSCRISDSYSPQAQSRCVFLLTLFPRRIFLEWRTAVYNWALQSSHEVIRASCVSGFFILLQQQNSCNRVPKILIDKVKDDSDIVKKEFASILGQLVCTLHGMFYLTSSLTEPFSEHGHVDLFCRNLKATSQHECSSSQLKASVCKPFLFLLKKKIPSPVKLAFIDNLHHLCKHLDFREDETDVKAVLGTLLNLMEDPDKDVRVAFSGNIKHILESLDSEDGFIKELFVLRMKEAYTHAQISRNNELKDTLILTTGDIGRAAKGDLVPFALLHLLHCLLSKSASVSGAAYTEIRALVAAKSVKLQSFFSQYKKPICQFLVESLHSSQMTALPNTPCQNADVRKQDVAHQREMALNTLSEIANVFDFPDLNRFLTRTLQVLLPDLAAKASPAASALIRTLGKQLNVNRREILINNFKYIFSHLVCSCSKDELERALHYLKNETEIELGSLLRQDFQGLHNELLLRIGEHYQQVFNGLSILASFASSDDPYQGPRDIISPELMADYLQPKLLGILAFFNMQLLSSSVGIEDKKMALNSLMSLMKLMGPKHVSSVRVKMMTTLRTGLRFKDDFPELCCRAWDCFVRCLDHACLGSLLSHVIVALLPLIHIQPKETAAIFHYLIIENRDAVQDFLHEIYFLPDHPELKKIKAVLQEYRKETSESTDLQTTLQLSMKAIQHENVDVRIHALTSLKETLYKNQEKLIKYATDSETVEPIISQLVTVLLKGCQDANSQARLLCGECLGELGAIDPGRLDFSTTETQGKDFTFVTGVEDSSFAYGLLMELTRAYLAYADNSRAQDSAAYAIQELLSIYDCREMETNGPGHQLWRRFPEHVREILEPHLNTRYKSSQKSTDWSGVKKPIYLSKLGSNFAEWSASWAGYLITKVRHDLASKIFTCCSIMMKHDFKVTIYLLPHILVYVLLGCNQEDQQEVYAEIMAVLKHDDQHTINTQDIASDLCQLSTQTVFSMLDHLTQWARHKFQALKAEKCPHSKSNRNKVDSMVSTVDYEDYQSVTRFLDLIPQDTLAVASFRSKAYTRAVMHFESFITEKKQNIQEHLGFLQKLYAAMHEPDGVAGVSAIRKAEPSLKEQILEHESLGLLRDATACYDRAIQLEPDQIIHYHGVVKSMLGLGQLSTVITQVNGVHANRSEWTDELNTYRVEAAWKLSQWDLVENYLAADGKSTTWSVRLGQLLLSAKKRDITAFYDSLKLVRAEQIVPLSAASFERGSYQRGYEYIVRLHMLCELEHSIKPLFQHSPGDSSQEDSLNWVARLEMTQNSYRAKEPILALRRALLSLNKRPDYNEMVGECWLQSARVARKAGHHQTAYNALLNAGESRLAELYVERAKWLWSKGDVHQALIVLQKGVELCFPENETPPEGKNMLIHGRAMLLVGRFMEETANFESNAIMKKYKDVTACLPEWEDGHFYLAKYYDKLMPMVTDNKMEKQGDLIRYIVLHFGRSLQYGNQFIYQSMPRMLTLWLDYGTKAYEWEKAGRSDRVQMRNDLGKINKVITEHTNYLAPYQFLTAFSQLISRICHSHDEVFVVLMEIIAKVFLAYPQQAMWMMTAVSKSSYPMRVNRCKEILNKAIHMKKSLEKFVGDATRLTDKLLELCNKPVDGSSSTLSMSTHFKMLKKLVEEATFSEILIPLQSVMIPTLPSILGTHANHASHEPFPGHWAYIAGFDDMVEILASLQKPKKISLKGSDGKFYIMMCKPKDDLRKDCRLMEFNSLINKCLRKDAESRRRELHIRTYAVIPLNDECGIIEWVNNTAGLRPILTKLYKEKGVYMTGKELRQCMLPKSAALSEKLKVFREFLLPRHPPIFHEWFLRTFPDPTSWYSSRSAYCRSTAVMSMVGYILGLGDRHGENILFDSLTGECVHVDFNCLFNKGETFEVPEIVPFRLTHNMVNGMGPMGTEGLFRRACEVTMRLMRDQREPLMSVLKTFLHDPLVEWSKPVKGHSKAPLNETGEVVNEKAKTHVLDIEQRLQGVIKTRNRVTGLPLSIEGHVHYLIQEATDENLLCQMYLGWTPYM
ATR/ATRIP (Homo sapiens), sequence (Q8WXE1 whole entry, looked up): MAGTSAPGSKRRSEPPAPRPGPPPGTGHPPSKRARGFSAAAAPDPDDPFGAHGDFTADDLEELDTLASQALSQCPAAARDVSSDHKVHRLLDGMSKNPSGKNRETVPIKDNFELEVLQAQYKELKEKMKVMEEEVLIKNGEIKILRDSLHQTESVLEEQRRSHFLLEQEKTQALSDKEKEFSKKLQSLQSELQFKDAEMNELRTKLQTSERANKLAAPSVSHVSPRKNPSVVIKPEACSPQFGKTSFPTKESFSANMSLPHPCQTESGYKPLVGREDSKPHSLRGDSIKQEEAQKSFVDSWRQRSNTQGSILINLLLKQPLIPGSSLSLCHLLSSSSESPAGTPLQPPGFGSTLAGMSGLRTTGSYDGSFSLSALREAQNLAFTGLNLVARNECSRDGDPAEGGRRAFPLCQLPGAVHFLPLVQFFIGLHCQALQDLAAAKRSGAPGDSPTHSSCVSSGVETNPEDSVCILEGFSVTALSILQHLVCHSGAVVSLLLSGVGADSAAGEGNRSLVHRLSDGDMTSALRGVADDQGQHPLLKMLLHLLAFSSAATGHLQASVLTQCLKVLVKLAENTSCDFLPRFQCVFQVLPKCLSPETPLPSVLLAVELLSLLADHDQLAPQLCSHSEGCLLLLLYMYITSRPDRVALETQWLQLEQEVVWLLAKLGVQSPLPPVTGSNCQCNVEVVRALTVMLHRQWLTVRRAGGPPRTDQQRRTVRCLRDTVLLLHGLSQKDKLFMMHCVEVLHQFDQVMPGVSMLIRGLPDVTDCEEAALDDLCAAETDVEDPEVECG

Activin receptor type-1-like (Homo sapiens), sequence (P37023 whole entry): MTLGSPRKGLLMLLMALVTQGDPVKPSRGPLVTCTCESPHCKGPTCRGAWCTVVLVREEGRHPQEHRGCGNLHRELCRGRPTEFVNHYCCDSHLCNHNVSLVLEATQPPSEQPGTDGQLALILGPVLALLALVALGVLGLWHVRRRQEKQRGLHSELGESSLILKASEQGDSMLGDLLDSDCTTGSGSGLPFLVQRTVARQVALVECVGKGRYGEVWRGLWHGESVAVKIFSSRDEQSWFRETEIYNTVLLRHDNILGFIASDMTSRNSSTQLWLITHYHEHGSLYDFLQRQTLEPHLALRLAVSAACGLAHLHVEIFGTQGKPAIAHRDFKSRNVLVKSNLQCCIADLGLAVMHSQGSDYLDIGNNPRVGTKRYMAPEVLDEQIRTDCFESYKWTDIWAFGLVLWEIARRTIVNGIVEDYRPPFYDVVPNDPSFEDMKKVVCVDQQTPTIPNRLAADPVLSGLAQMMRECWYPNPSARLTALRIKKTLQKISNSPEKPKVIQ
Serine/threonine-protein kinase 26 (Homo sapiens), sequence (Q9P289 2-416 limits assumed): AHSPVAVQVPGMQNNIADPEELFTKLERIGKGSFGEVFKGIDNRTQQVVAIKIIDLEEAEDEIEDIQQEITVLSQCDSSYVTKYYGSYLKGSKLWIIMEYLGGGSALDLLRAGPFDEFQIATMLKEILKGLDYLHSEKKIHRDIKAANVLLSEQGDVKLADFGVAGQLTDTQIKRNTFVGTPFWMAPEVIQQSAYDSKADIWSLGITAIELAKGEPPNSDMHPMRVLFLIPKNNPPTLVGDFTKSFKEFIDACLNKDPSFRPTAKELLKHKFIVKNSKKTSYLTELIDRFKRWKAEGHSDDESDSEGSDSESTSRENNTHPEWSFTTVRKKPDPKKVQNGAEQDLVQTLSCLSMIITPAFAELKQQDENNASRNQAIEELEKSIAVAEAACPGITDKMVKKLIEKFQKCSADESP
Protein kinase C zeta type (Homo sapiens), sequence (Q05513 whole entry): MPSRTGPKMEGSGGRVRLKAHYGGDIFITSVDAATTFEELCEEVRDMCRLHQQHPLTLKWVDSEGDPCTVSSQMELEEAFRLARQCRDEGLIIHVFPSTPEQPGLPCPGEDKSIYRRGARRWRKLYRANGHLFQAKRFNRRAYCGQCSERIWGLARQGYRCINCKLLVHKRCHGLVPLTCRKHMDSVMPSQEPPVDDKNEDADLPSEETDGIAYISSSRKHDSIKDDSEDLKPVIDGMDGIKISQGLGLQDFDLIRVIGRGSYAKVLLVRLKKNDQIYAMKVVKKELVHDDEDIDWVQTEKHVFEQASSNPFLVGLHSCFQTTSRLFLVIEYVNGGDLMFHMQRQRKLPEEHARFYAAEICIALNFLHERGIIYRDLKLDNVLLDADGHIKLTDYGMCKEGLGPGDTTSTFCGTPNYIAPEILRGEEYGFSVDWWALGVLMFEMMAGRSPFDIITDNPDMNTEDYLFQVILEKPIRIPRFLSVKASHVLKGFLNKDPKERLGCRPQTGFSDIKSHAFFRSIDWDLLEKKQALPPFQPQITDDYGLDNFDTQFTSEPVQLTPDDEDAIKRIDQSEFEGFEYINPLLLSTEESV

CCc1ccccc1C(=O)Nc1n[nH]c2c(C)c(F)c(C3C(C#N)=C(C)N(C)C(C)=C3C#N)cc12 [BAY-3827] was tested, and the % residual kinase activity [1] was 98%, the % residual kinase activity [2] was 99% and the % residual kinase activity [3] was 84%. For the same compound, the “Cell Proliferation IC50” value (LNCaP) was 0.28 µM, the % residual kinase activity [4] was 105% and the % residual kinase activity [5] was 102%. For the same compound, the “Cell Proliferation IC50” value (DU-145) was >10 µM, the % residual kinase activity [6] was 138% and the % residual kinase activity [7] was 94%. The % residual kinase activity [8] was 58%, the % residual kinase activity [9] was 106% and the “Cell Proliferation IC50” value (PANC-1) was 17.1 µM. It also gave a % residual kinase activity (ATR/ATRIP (Homo sapiens)) of 94%.
